Results from PubChem BioAssay (NCI).
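Following 48 hours of exposure in 96-well plates, responses at five concentrations were used to interpolate endpoints linearly. GI50: concentration for 50% inhibition of growth. TGI is the concentration that stops growth completely.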

Legend:
Assay in all cases: NCI anticancer screen, dose series, 48 h
EKVX NSCLC = system: EKVX NSCLC
K-562 leukemia = system: K-562 leukemia
SK-MEL-2 melanoma = system: SK-MEL-2 melanoma
OVCAR-8 ovarian = system: OVCAR-8 ovarian
A498 renal = system: A498 renal
NCI-H226 lung = system: NCI-H226 lung
PC-3 prostate = system: PC-3 prostate
SF-295 CNS = system: SF-295 CNS
OVCAR-4 ovarian = system: OVCAR-4 ovarian
IGROV1 ovarian = system: IGROV1 ovarian
HCT-15 colon = system: HCT-15 colon
MCF7 breast = system: MCF7 breast
HS 578T breast = system: HS 578T breast
UACC-257 melanoma = system: UACC-257 melanoma
HCT-116 colon = system: HCT-116 colon
SW-620 colon = system: SW-620 colon
M14 melanoma = system: M14 melanoma
SN12C renal = system: SN12C renal
CCRF-CEM leukemia = system: CCRF-CEM leukemia
TK-10 renal = system: TK-10 renal
COLO 205 colon = system: COLO 205 colon
ACHN renal = system: ACHN renal
MOLT-4 leukemia = system: MOLT-4 leukemia
LOX IMVI melanoma = system: LOX IMVI melanoma
T-47D breast = system: T-47D breast
RPMI-8226 leukemia = system: RPMI-8226 leukemia
CAKI-1 renal = system: CAKI-1 renal
MDA-MB-468 breast = system: MDA-MB-468 breast
SK-MEL-28 melanoma = system: SK-MEL-28 melanoma
NCI-H23 lung = system: NCI-H23 lung
HL-60(TB) leukemia = system: HL-60(TB) leukemia
HOP-62 NSCLC = system: HOP-62 NSCLC
SK-OV-3 ovarian = system: SK-OV-3 ovarian
U251 CNS = system: U251 CNS
DU-145 prostate = system: DU-145 prostate
NCI-H460 lung = system: NCI-H460 lung
NCI-H522 lung = system: NCI-H522 lung
SNB-75 CNS = system: SNB-75 CNS
SF-268 CNS = system: SF-268 CNS
786-0 renal = system: 786-0 renal
SK-MEL-5 melanoma = system: SK-MEL-5 melanoma
UACC-62 melanoma = system: UACC-62 melanoma
UO-31 renal = system: UO-31 renal
OVCAR-5 ovarian = system: OVCAR-5 ovarian
RXF 393 renal = system: RXF 393 renal
SF-539 CNS = system: SF-539 CNS
SNB-19 CNS = system: SNB-19 CNS
MDA-MB-231 breast = system: MDA-MB-231 breast
HCC-2998 colon = system: HCC-2998 colon
KM12 colon = system: KM12 colon
SR leukemia = system: SR leukemia
A549 NSCLC = system: A549 NSCLC
MDA-MB-435 = system: MDA-MB-435
MALME-3M melanoma = system: MALME-3M melanoma
OVCAR-3 ovarian = system: OVCAR-3 ovarian
BT-549 breast = system: BT-549 breast
HOP-92 NSCLC = system: HOP-92 NSCLC
HT29 colon = system: HT29 colon

SMILES: Cc1ccc(C(=O)Nc2cc(-n3ccnc3C)cc(C(F)(F)F)c2)cc1C#Cc1cnc2cccnn12
- GI50 (EKVX NSCLC): 6.85 µM
- TGI (EKVX NSCLC): > 29.3 µM
- GI50 (K-562 leukemia): 2.93 nM
- TGI (K-562 leukemia): > 29.3 µM
- GI50 (SK-MEL-2 melanoma): 840 nM
- TGI (SK-MEL-2 melanoma): 4.62 µM
- GI50 (OVCAR-8 ovarian): 3.49 µM
- TGI (OVCAR-8 ovarian): 11.1 µM
- GI50 (A498 renal): 3.26 µM
- TGI (A498 renal): 9.74 µM
- GI50 (NCI-H226 lung): 1230 nM
- TGI (NCI-H226 lung): 6.47 µM
- GI50 (PC-3 prostate): 4.51 µM
- TGI (PC-3 prostate): 15.3 µM
- GI50 (SF-295 CNS): 3.13 µM
- TGI (SF-295 CNS): 8.7 µM
- GI50 (OVCAR-4 ovarian): 4.51 µM
- TGI (OVCAR-4 ovarian): 16.3 µM
- GI50 (IGROV1 ovarian): 2620 nM
- TGI (IGROV1 ovarian): 23.2 µM
- GI50 (HCT-15 colon): 2440 nM
- TGI (HCT-15 colon): > 29.3 µM
- GI50 (MCF7 breast): 5.06 µM
- TGI (MCF7 breast): > 29.3 µM
- GI50 (HS 578T breast): 1120 nM
- TGI (HS 578T breast): 7.31 µM
- GI50 (UACC-257 melanoma): 1780 nM
- TGI (UACC-257 melanoma): 8.74 µM
- GI50 (HCT-116 colon): 1310 nM
- TGI (HCT-116 colon): 8.25 µM
- GI50 (SW-620 colon): 2430 nM
- TGI (SW-620 colon): > 29.3 µM
- GI50 (M14 melanoma): 924 nM
- TGI (M14 melanoma): 24.4 µM
- GI50 (SN12C renal): 948 nM
- TGI (SN12C renal): 5.97 µM
- GI50 (CCRF-CEM leukemia): 3.45 µM
- TGI (CCRF-CEM leukemia): > 29.3 µM
- GI50 (TK-10 renal): 4.27 µM
- TGI (TK-10 renal): 14 µM
- GI50 (COLO 205 colon): 1700 nM
- TGI (COLO 205 colon): 15.6 µM
- GI50 (ACHN renal): 2490 nM
- TGI (ACHN renal): 6.69 µM
- GI50 (MOLT-4 leukemia): 2420 nM
- TGI (MOLT-4 leukemia): > 29.3 µM
- GI50 (LOX IMVI melanoma): 702 nM
- TGI (LOX IMVI melanoma): 4.35 µM
- GI50 (T-47D breast): 4.24 µM
- TGI (T-47D breast): 12.6 µM
- GI50 (RPMI-8226 leukemia): 1270 nM
- TGI (RPMI-8226 leukemia): 15 µM
- GI50 (CAKI-1 renal): 1760 nM
- TGI (CAKI-1 renal): 6.52 µM
- GI50 (MDA-MB-468 breast): 6.89 µM
- TGI (MDA-MB-468 breast): 19.7 µM
- GI50 (SK-MEL-28 melanoma): 898 nM
- TGI (SK-MEL-28 melanoma): 4.47 µM
- GI50 (NCI-H23 lung): 1530 nM
- TGI (NCI-H23 lung): 12.2 µM
- GI50 (HL-60(TB) leukemia): 257 nM
- TGI (HL-60(TB) leukemia): > 29.3 µM
- GI50 (HOP-62 NSCLC): 1880 nM
- TGI (HOP-62 NSCLC): 9.67 µM
- GI50 (SK-OV-3 ovarian): 5.64 µM
- TGI (SK-OV-3 ovarian): 14.9 µM
- GI50 (U251 CNS): 4.23 µM
- TGI (U251 CNS): 13.4 µM
- GI50 (DU-145 prostate): 5.23 µM
- TGI (DU-145 prostate): 23.1 µM
- GI50 (NCI-H460 lung): 3.68 µM
- TGI (NCI-H460 lung): 10.8 µM
- GI50 (NCI-H522 lung): 2740 nM
- TGI (NCI-H522 lung): 9.44 µM
- GI50 (SNB-75 CNS): 2980 nM
- TGI (SNB-75 CNS): 8.74 µM
- GI50 (SF-268 CNS): 4 µM
- TGI (SF-268 CNS): 16.4 µM
- GI50 (786-0 renal): 4.02 µM
- TGI (786-0 renal): 11.9 µM
- GI50 (SK-MEL-5 melanoma): 3.33 µM
- TGI (SK-MEL-5 melanoma): 8.81 µM
- GI50 (UACC-62 melanoma): 756 nM
- TGI (UACC-62 melanoma): 4.13 µM
- GI50 (UO-31 renal): 1130 nM
- TGI (UO-31 renal): 6.17 µM
- GI50 (OVCAR-5 ovarian): 1270 nM
- TGI (OVCAR-5 ovarian): 8.91 µM
- GI50 (RXF 393 renal): 1640 nM
- TGI (RXF 393 renal): 6.11 µM
- GI50 (SF-539 CNS): 916 nM
- TGI (SF-539 CNS): 4 µM
- GI50 (SNB-19 CNS): 6.09 µM
- TGI (SNB-19 CNS): 19.1 µM
- GI50 (MDA-MB-231 breast): 364 nM
- TGI (MDA-MB-231 breast): 3.2 µM
- GI50 (HCC-2998 colon): 2550 nM
- TGI (HCC-2998 colon): 11 µM
- GI50 (KM12 colon): 131 nM
- TGI (KM12 colon): 24.6 µM
- GI50 (SR leukemia): 2440 nM
- TGI (SR leukemia): > 29.3 µM
- GI50 (A549 NSCLC): 3.01 µM
- TGI (A549 NSCLC): 13.5 µM
- GI50 (MDA-MB-435): 3.07 µM
- TGI (MDA-MB-435): 14.7 µM
- GI50 (MALME-3M melanoma): 250 nM
- TGI (MALME-3M melanoma): 1730 nM
- GI50 (OVCAR-3 ovarian): 9.25 µM
- TGI (OVCAR-3 ovarian): 29.1 µM
- GI50 (BT-549 breast): 3.4 µM
- TGI (BT-549 breast): 8.39 µM
- GI50 (HOP-92 NSCLC): 918 nM
- TGI (HOP-92 NSCLC): 4.61 µM
- GI50 (HT29 colon): 848 nM
- TGI (HT29 colon): 4.94 µM
